Paper PMC5794198, “Inhibitors of Trypanosoma cruzi Sir2 related protein 1 as potential drugs against Chagas disease” (PLoS Neglected Tropical Diseases, 2018)

What was measured:
TcSir2rp1 = TcSir2rp1 (Trypanosoma cruzi, UniProt Q4DVL9); experiment: TcSir2rp1 NAD+-dependent deacetylase fluorimetric assay (CycLex kit); assay type: biochemical
Experimental: The deacetylase activity was measured using the commercial SIRT1/Sir2 Deacetylase Fluorometric Assay Kit (CycLex,Japan) according to the manufacturer’s recommendations. Briefly, fluorescence emission after digestion of deacetylated substrates by a lysine specific endopeptidase was measured in a fluorometric plate reader (Synergy HT, BioTek) with excitation and emission wavelengths set at 340 and 440 nm, respectively, every 30 seconds for 1 hour. The slope of the linear part of the reaction was calculated and used as readout of enzyme activity. […]
(§1) A variety of the bisnaphthalimidopropyl (BNIPs) derivatives, as well as the newly synthetized derivatives were evaluated as potential TcSir2rp1 inhibitors. The enzymatic reactions were performed using a commercially available CycLex SIRT1/Sir2 deacetylase fluorimetric kit (CycLex Co. Ltd., Nagano, Japan) in the absence and presence of the various inhibitors, 200 μM NAD^+ and 10 μM of peptide substrate as previously described.
as §1, with “µM” for “μM”

human SIRT1 = molecular target: T1, human SIRT1 (Homo sapiens, UniProt Q96EB6); experiment: hSIRT1 deacetylase inhibition (CycLex kit); assay type: biochemical; conditions: 200 μM
T1 sequence (Q96EB6 1-747): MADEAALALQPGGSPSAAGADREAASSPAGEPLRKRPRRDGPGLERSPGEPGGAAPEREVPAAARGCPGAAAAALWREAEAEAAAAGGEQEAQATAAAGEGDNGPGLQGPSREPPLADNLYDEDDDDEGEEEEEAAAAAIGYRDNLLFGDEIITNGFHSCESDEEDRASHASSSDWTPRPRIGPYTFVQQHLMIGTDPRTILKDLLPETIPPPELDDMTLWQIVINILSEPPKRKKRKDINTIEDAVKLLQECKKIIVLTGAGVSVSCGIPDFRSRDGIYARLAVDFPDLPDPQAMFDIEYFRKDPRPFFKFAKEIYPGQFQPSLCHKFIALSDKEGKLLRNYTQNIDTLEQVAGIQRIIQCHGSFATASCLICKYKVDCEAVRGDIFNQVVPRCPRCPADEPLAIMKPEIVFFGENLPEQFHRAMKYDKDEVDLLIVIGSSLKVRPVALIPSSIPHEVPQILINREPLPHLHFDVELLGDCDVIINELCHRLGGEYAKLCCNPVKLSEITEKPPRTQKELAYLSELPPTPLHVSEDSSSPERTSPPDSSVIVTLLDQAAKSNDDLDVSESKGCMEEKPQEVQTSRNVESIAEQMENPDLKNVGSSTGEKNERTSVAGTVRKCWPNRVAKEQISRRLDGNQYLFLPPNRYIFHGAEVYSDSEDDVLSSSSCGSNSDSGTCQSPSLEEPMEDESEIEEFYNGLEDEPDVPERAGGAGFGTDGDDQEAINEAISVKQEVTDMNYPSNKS

TbSir2rp1 = molecular target: T2, TbSir2rp1 (Trypanosoma brucei brucei, UniProt Q57V41); experiment: TbSir2rp1 deacetylase inhibition; assay type: biochemical
T2 construct: hexahistidine (C); made in house
Experimental: (§2) T. brucei Sir2rp1 (accession number: AAX70528.1) tagged with a C-terminal hexahistidine was expressed and characterized essentiality as described previously L. infantum Sir2rp1 was expressed and purified as previously described.
(§3) The deacetylase activity was measured using the commercial SIRT1/Sir2 Deacetylase Fluorometric Assay Kit (CycLex,Japan) according to the manufacturer’s recommendations. Briefly, fluorescence emission after digestion of deacetylated substrates by a lysine specific endopeptidase was measured in a fluorometric plate reader (Synergy HT, BioTek) with excitation and emission wavelengths set at 340 and 440 nm, respectively, every 30 seconds for 1 hour. The slope of the linear part of the reaction was calculated and used as readout of enzyme activity.

LiSir2rp1 = molecular target: T3, LiSir2rp1 (Leishmania infantum, UniProt A0A6L0XH39); experiment: LiSir2rp1 deacetylase inhibition; assay type: biochemical
T3 construct: made in house
Experimental: as §2, §3

T. cruzi amastigotes = experiment: High-content screening assay on intracellular T. cruzi amastigotes; assay type: cell-based, Trypanosoma cruzi; conditions: up to a concentration of 2000 μM (2 mM)
Experimental: For the evaluation of the activity against T. cruzi amastigotes, high-content screening (HCS) was designed. In summary, 100 μL of host C2C12 cells (ATCC) were seeded in clear bottom black 96-well plates at a density of 2.5 x 10^4 cells/mL (2.5 × 10^3 cells/well). After 24 hrs, 50 μL of Y strain tissue culture-derived trypomastigotes were used to infect the host cells at a density of 7.5 x 10^5/mL (3.75 x 10^4 parasites/well). The parasites were allowed to infect for a 24 hr period, after which compounds were added in a volume of 50 μL. […] After 72 hrs of compound incubation, the wells were fixed with 4% paraformaldehyde for 15 to 30 mins. The plates were then washed once with deionized water and stained with a solution of DAPI (3 μM) for 1 hour. Plates were imaged in an INCell 2000 (GE Healthcare) high-content analyser by taking 16 pictures per well at 20 X objective amplification. Images were analysed with INCell Developer software (GE Healthcare) using the segmentation of host cell nuclei and parasite kinetoplast DNA. The measurement output used was the average number of parasites per cell calculated by the ratio of host cell nuclei/parasite kinetoplast DNA.
In this assay, the compounds are incubated for 72 hours with cells previously infected with wild-type trypomastigotes for 24 hours. The readout was done by comparing the average number of amastigotes per cell that developed by the end of the incubation period. The quality of the assay was statistically evaluated by the calculation of the z-factor [75], that represents the reliability of the assay in distinguishing positive controls confidently from negative controls. Varying from 0 to 1, z-factor values higher than 0.5 are considered acceptable for drug screening. The z-factor obtained was 0.68, validating the use of the assay (S3B Fig).

[1] = tested on: Plasmodium falciparum Sir2A; parameters: method as in PMID 19937668, PMID 18221799; conditions: previously described; ref [46], [72]; cited from earlier work

Sequence of TcSir2rp1 (Q4DVL9 entry or part of it): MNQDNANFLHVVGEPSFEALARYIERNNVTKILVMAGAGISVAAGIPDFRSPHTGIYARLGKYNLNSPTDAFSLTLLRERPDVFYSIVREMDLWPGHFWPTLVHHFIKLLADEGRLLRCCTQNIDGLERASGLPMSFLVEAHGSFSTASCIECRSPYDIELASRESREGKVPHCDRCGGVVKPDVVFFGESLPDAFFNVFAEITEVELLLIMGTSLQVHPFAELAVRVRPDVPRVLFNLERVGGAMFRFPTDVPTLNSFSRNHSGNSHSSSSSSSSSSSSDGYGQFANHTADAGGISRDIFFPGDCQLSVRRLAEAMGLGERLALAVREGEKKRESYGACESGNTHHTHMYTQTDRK
T2 sequence (Q57V41 whole entry): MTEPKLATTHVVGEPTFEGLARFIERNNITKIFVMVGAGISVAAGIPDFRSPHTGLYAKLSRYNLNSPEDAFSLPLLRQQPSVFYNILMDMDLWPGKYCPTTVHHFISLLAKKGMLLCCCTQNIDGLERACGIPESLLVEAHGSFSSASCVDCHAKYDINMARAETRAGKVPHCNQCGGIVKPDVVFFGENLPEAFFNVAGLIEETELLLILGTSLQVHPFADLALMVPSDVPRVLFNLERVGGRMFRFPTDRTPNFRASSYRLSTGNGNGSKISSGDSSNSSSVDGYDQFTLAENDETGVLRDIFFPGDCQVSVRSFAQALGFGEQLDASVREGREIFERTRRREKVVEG
T3 sequence (A0A6L0XH39 entry or part of it): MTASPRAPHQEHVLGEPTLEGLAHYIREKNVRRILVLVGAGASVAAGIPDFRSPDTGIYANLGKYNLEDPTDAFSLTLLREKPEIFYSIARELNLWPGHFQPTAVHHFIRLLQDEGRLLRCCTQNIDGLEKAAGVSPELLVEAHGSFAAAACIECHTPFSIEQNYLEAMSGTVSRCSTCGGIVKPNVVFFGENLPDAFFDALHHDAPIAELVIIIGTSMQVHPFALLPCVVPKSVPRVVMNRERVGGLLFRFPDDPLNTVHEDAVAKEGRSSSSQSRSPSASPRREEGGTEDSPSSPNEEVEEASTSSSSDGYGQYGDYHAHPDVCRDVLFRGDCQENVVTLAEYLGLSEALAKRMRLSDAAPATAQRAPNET

With NC(=O)c1cccnc1 [Nicotinamide, nicotinamide, reference compound] the IC50 (TcSir2rp1; 10 μM Ac-peptide and 200 μM NAD+, read-out: IC50 of TcSir2rp1 inhibition) was 456 ± 44 µM, the inhibition at 200 µM (TcSir2rp1; 200 μM) was 34 ± 1% and the inhibition at 200 µM (human SIRT1) was 66 ± 10%. The inhibition at 200 µM (TbSir2rp1) was 70 ± 5%, the inhibition at 200 µM (LiSir2rp1) was 82% and the “Activity in the amastigote assay” value (T. cruzi amastigotes) was “no amastigote anti-parasitic activity was detected”. The IC50 [1] was 51.2 ± 3 µM.
